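Cells were grown in 96-well plates and exposed to each compound for 48 hours at five concentrations; endpoints were interpolated linearly between bracketing concentrations, or set to the highest concentration if not reached. GI50 is the concentration that inhibits growth by half.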 Calls of active or inactive are those of the source. Cut-off read from the data, not from the text of the source: active = GI50 up to about 1.1 µM and inactive = higher.

Assay in all cases: growth of human tumour cells (NCI), 48 h
For test [1], the system named is EKVX.
Test [2] concerns HOP-62.
For test [3], the system named is HT-29.
The subject of test [4] is IGROV-1.
Test [5] deals with LXFL 529.
Test [6] deals with M14.
Test [7] relates to Malme-3M.
Test [8] concerns OVCAR-4.
Test [9] relates to SF-268.
The test system of test [10] is SF-295.
In test [11] the test system is SK-MEL-28.
For test [12], the system named is SK-MEL-5.
Test [13] concerns SK-OV-3.
For test [14], the system named is HCT-116.
The test system of test [15] is Hs-578T.
In test [16] the test system is MCF7.
The subject of test [17] is NCI-H226.
The test system of test [18] is PC-3.
In test [19] the test system is SR.
Test [20] relates to T47D.

With `CCOC(=O)c1cn(CC)c2cc3c(cc2c1=O)SCS3`, the GI50 in [1], in test [2], in test [3], in test [4], in [5] and in [6] was > 100 µM (inactive) in each case. The GI50 in [7], in [8], in test [9], in test [10], in [11] and in [12] was > 100 µM (inactive) each time. The GI50 in test [13] is > 100 µM (inactive).

On to `CCOC(=O)C1(Cc2ccc3ccccc3c2)CCCCCN1` (stereo unspecified), for which the GI50 is 69.5 µM (inactive) in test [1]; 64.3 µM (inactive) in test [2]; 12.6 µM (inactive) in [3]; > 100 µM (inactive) in test [4]; 34.1 µM (inactive) in [5]; 20 µM (inactive) in test [6]. The GI50 in test [7] is 16.5 µM (inactive); in test [8], 31.4 µM (inactive); in test [9] it was 58.5 µM (inactive); in test [10], 19 µM (inactive); in [11], 23.3 µM (inactive); in test [13] it was 32.7 µM (inactive).

For `O=C(NCCCc1cn[nH]c(=O)n1)c1cccc2nc3ccccc3nc12`, the GI50 is > 100 µM (inactive) in [1]; 42 µM (inactive) in test [14]; 47.8 µM (inactive) in test [2]; > 100 µM (inactive) in [3]; > 100 µM (inactive) in [15]; > 100 µM (inactive) in test [4]. Further, the GI50 in test [6] is > 100 µM (inactive); in test [16], > 100 µM (inactive); in test [7] it was 36.5 µM (inactive); in test [17] it was > 100 µM (inactive); in test [8], > 100 µM (inactive); in test [18], > 100 µM (inactive). Moreover, the GI50 in test [9] is 91.8 µM (inactive); in [10], 31.7 µM (inactive); in test [11], > 100 µM (inactive); in test [12], > 100 µM (inactive); in test [13], > 100 µM (inactive); in [19], 40.6 µM (inactive). The GI50 in test [20] is > 100 µM (inactive).

Take `O=C(Sc1c(-c2ccccc2)c(=O)n(-c2ccccc2)c(=S)n1-c1ccccc1)c1ccco1`: the GI50 in test [1] was > 100 µM (inactive); in test [14], > 100 µM (inactive); in test [2], > 100 µM (inactive); in test [3] it was > 100 µM (inactive); in test [15], > 73.5 µM (inactive); in test [4], > 100 µM (inactive). For the same molecule, the GI50 in test [6] is > 100 µM (inactive); in test [16] it was > 100 µM (inactive); in [7], > 69.5 µM (inactive); in test [17], > 100 µM (inactive); in test [8] it was > 100 µM (inactive); in test [18] it was > 100 µM (inactive). Besides, the GI50 is > 100 µM (inactive) in [9]; > 100 µM (inactive) in test [10]; > 100 µM (inactive) in test [11]; 97.9 µM (inactive) in test [12]; > 100 µM (inactive) in [13]; 29.2 µM (inactive) in test [19]. In addition, in [20], the GI50 was > 100 µM (inactive).

`O=C(Cc1ccccc1)NCCc1ccc(O)c(O)c1`: the GI50 in test [1] is > 100 µM (inactive); in test [14] it was > 100 µM (inactive); in test [2], > 100 µM (inactive); in test [3], > 100 µM (inactive); in test [15], > 100 µM (inactive); in [4] it was 77.1 µM (inactive). The GI50 in [6] is > 100 µM (inactive); in [16], > 100 µM (inactive); in test [7], > 100 µM (inactive); in test [17], > 100 µM (inactive); in [8], 13 µM (inactive); in test [18], > 100 µM (inactive). The GI50 in test [9] was 63.1 µM (inactive); in test [10] it was > 100 µM (inactive); in test [11] it was > 100 µM (inactive); in [12], > 100 µM (inactive); in test [13], > 100 µM (inactive); in test [19], 23.3 µM (inactive). In test [20], the GI50 was > 100 µM (inactive).

On to `COC(=O)c1c(O)ccc2c1c1c(n2Cc2ccccc2Cl)C(=O)c2ccccc2C1=O`, for which the GI50 in [1] was 16.9 µM (inactive); in test [14] it was 10.5 µM (inactive); in [2] it was 26 µM (inactive); in [3], 1.17 µM (inactive); in test [15], 21.6 µM (inactive); in test [4], 13.6 µM (inactive). Besides, the GI50 in [6] is 15.5 µM (inactive); in test [16], 6.73 µM (inactive); in [7], 17 µM (inactive); in test [17], 17.7 µM (inactive); in [8], 2.93 µM (inactive); in test [18] it was 11.5 µM (inactive). For the same molecule, the GI50 in test [9] is 12.4 µM (inactive); in test [10], 14.6 µM (inactive); in test [11], 15.6 µM (inactive); in test [12] it was 12.5 µM (inactive); in test [13] it was 12.9 µM (inactive); in [19] it was 14.6 µM (inactive). Moreover, the GI50 in test [20] is 7.01 µM (inactive).

In the case of `O=C1NC(c2ccccc2)C1N(Cc1ccccc1)Cc1ccccc1` (stereo unspecified), the GI50 in [1] was > 100 µM (inactive); in test [14], > 100 µM (inactive); in [2], > 100 µM (inactive); in test [3], > 100 µM (inactive); in test [15] it was 61.2 µM (inactive); in test [4] it was > 100 µM (inactive). In addition, the GI50 in [6] is > 100 µM (inactive); in test [16] it was > 100 µM (inactive); in [7], > 100 µM (inactive); in test [17], > 100 µM (inactive); in test [8], 59.8 µM (inactive); in test [18], > 100 µM (inactive). For the same molecule, the GI50 in test [9], in [10], in [11], in test [12], in test [13] and in [19] was > 100 µM (inactive) in each case. For the same molecule, the GI50 in [20] was > 100 µM (inactive).

With `O=[N+]([O-])C(=C(\Cl)NCCO)/C(Cl)=C(/Cl)Br`, the GI50 in [1] is 4.85 µM (inactive); in test [14] it was 1.61 µM (inactive); in test [2], 10.8 µM (inactive); in test [3], 1.83 µM (inactive); in test [15], 6 µM (inactive); in [4], 2.77 µM (inactive). Besides, the GI50 was 1.57 µM (inactive) in test [6]; 0.716 µM (active) in [16]; 1.62 µM (inactive) in test [7]; 6.73 µM (inactive) in test [17]; 0.716 µM (active) in test [8]; 2.62 µM (inactive) in test [18]. Also, the GI50 in test [9] is 1.62 µM (inactive); in [10] it was 12.1 µM (inactive); in test [11] it was 2.1 µM (inactive); in test [12] it was 2.44 µM (inactive); in test [13], 15 µM (inactive); in [19], 1.11 µM (active). In test [20], the GI50 was 1.74 µM (inactive).

As to `Cc1cc(=O)oc2cc(OC(=O)Nc3ccccc3)ccc12`, the GI50 was > 100 µM (inactive) in test [1]; 47.8 µM (inactive) in test [14]; > 100 µM (inactive) in test [2]; > 100 µM (inactive) in test [3]; 64.4 µM (inactive) in [15]; 69.8 µM (inactive) in test [4]. In addition, the GI50 in test [6] was > 100 µM (inactive); in [16], 88.1 µM (inactive); in test [7], > 100 µM (inactive); in test [17], 73.1 µM (inactive); in test [8], > 100 µM (inactive); in test [18], 48.8 µM (inactive). In addition, the GI50 in test [9] is > 100 µM (inactive); in test [10] it was > 100 µM (inactive); in [11], > 100 µM (inactive); in test [12] it was 59 µM (inactive); in test [13], 70.6 µM (inactive); in [19], 29.5 µM (inactive). The GI50 in test [20] was 41.9 µM (inactive).

Consider `C/C(=N/CC(=O)O)c1ccccc1`, for which the GI50 in [1], in test [14], in [2], in [3], in [15] and in [4] was > 100 µM (inactive) in each case. Moreover, the GI50 in test [6], in test [16], in [7], in test [17], in test [8] and in [18] was > 100 µM (inactive) throughout. Further, the GI50 in test [9] is > 100 µM (inactive); in [10], > 100 µM (inactive); in test [11], > 100 µM (inactive); in [12], 89.5 µM (inactive); in [13], > 100 µM (inactive); in test [19], 65 µM (inactive). In addition, in [20], the GI50 was > 100 µM (inactive).

On to `C[C@H](CCC(=O)O)[C@H]1CC[C@H]2[C@@H]3[C@H](O)C[C@@H]4C[C@H](O)CC[C@]4(C)[C@H]3C[C@H](O)[C@]12C`, for which the GI50 in test [1], in test [14], in test [2], in test [3], in test [15] and in test [4] was > 100 µM (inactive) throughout. The GI50 in test [6], in [16], in test [7], in test [17], in test [8] and in [18] was > 100 µM (inactive) throughout. The GI50 in test [9], in [10], in [11], in test [12], in [13] and in test [19] was > 100 µM (inactive) each time. For the same molecule, the GI50 in test [20] was > 100 µM (inactive).

Source of the values: ChEMBL document CHEMBL1201862, “PubChem BioAssay data set” (2004).
